Patent US6537986B2, “Oxazolidinone antibacterial agents having a thiocarbonyl funtionality” (Pharmacia & Upjohn Company, priority 1997, dated 2003)
Values after ≈ are worked out from the molar mass of the structure shown.

What was measured:
[1] = test system: Enterococcus faecalis (EFAE 9217); assay: MIC, standard agar dilution method; type: cell-based; settings: Table II, key: Enterococcus faecalis, Mueller Hinton agar, incubated overnight at 35° C., read-out: EFAE 9217 MIC
Protocol: (§1) MIC Test Method The in vitro MICs of test compounds were determined by a standard agar dilution method. […] Serial 2-fold dilutions of each sample are made using 1.0 ml aliquots of sterile distilled water. To each 1.0 ml aliquot of drug is added 9 ml of molten Mueller Hinton agar medium. The drug-supplemented agar is mixed, poured into 15×100 mm petri dishes, and allowed to solidify and dry prior to inoculation. Vials of each of the test organisms are maintained frozen in the vapor phase of a liquid nitrogen freezer. Test cultures are grown overnight at 35° C. on the medium appropriate for the organism. Colonies are harvested with a sterile swab, and cell suspensions are prepared in Trypticase Soy broth (TSB) to equal the turbidity of a 0.5 McFarland standard. A 1:20 dilution of each suspension is made in TSB. […] The plates are incubated overnight at 35° C. Following incubation the Minimum Inhibitory Concentration (MIC μg/ml), the lowest concentration of drug that inhibits visible growth of the organism, is read and recorded.

[2] = test system: S. epidermidis (SEPI 30593); assay: MIC, standard agar dilution method; type: cell-based; settings: Staphylococcus epidermidis, Table II, Mueller Hinton agar, incubated overnight at 35° C.
Protocol: as §1

[3] = test system: E. Faecium (EFAE 12712); assay: MIC, standard agar dilution method; type: cell-based; settings: Enterococcus faecium; Table II; key: E. Faecium; agar dilution, Mueller Hinton agar, incubated overnight at 35° C.; read-out: EFAE 12712 MIC
Protocol: as §1

[4] = test system: S. aureus (SAUR 9213); assay: MIC, standard agar dilution method; type: cell-based; settings: Staphylococcus aureus, Table II, Mueller Hinton agar, incubated overnight at 35° C., read-out: SAUR 9213 MIC
Protocol: as §1

[5] = test system: Moraxella catarrhalis (MCAT 30610); assay: MIC, standard agar dilution method; type: cell-based; settings: Moraxella catarrhalis, Table II, Mueller Hinton agar, incubated overnight at 35° C.
Protocol: as §1

[6] = test system: Haemophilus influenzae (HINF 30063); assay: MIC, standard agar dilution method; type: cell-based; settings: Haemophilus influenzae, Table II, Mueller Hinton agar, incubated overnight at 35° C.
Protocol: as §1

[7] = test system: S. pneumoniae (SPNE 9912); assay: MIC, standard agar dilution method; type: cell-based; settings: Streptococcus pneumoniae, Table II, Mueller Hinton agar, incubated overnight at 35° C., read-out: SPNE 9912 MIC
Protocol: as §1

[8] = test system: S. pyogenes (SPYO 152); assay: MIC, standard agar dilution method; type: cell-based; settings: Streptococcus pyogenes, Table II, Mueller Hinton agar, incubated overnight at 35° C., read-out: SPYO 152 MIC
Protocol: as §1

SMILES | MIC [1] | MIC [2] | MIC [3] | MIC [4] | MIC [5] | MIC [6] | MIC [7] | MIC [8] | melting point
CCC(=S)NC[C@H]1CN(c2ccc(N3CCOCC3)c(F)c2)C(=O)O1 [Example 14, (S)-N-[[3-[3-Fluoro-4-(4-morpholinyl)phenyl]-2-oxo-5-oxazolidinyl]methyl]thiopropion-amide] | 1 mg/L (≈ 2.72 µM) | 0.5 mg/L (≈ 1.36 µM) | 1 mg/L (≈ 2.72 µM) | 1 mg/L (≈ 2.72 µM) | 1 mg/L (≈ 2.72 µM) | 8 mg/L (≈ 21.8 µM) | 0.25 mg/L (≈ 0.68 µM) | 0.5 mg/L (≈ 1.36 µM) | 138 to 139 °C
O=C1O[C@@H](CNC(=S)C(F)(F)F)CN1c1ccc(N2CCOCC2)c(F)c1 [Example 16, (S)-N-[[3-[3-Fluoro-4-(4-moropholinyl)phenyl]-2-oxo-5-oxazolidinyl]methyl]-α,α,α-trifluorothioacetamide] | 16 mg/L (≈ 39.3 µM) | 8 mg/L (≈ 19.6 µM) | 16 mg/L (≈ 39.3 µM) | 8 mg/L (≈ 19.6 µM) | 32 mg/L (≈ 78.5 µM) | > 64 mg/L | 2 mg/L (≈ 4.91 µM) | 8 mg/L (≈ 19.6 µM) | 151 to 152 °C
O=C1O[C@@H](CNC(=S)C(F)F)CN1c1ccc(N2CCOCC2)c(F)c1 [Example 18, (S)-N-[[3-[3-Fluoro-4-(4-morpholinyl)phenyl]-2-oxo-5-oxazolidinyl]methyl]-α,α-difluorothioacetamide] | 2 mg/L (≈ 5.14 µM) | 1 mg/L (≈ 2.57 µM) | 2 mg/L (≈ 5.14 µM) | 2 mg/L (≈ 5.14 µM) | 4 mg/L (≈ 10.3 µM) | 32 mg/L (≈ 82.2 µM) | < 0.5 mg/L | 1 mg/L (≈ 2.57 µM) | 125 to 127 °C
CC(=S)NC[C@H]1CN(c2ccc3c(c2)CCN3C(=O)CO)C(=O)O1 [Example 24, (S)-N-[[3-[1-(Hydroxyacetyl)-5-indolinyl]-2-oxo-5-oxazolidinyl]methyl]thioacetamide] | 0.5 mg/L (≈ 1.43 µM) | 0.25 mg/L (≈ 0.715 µM) | 0.5 mg/L (≈ 1.43 µM) | 1 mg/L (≈ 2.86 µM) | 2 mg/L (≈ 5.72 µM) | 4 mg/L (≈ 11.4 µM) | < 0.125 mg/L | 0.25 mg/L (≈ 0.715 µM) | 175 to 176 °C (dec.)
CC(=S)NC[C@H]1CN(c2ccc(N3CCN(C(=O)CO)CC3)c(F)c2)C(=O)O1 [Example 25, (S)-N-[[3-[3-Fluoro-4-[4-(hydroxyacetyl)-1-piperazinyl]phenyl]-2-oxo-5-oxazolidinyl]methyl]thioacetamide] | 0.5 mg/L (≈ 1.22 µM) | 0.25 mg/L (≈ 0.609 µM) | 0.5 mg/L (≈ 1.22 µM) | 0.5 mg/L (≈ 1.22 µM) | 2 mg/L (≈ 4.87 µM) | 2 mg/L (≈ 4.87 µM) | < 0.125 mg/L | < 0.125 mg/L | 163 to 165 °C
CC(=S)NC[C@H]1CN(c2ccc(N3CCSCC3)c(F)c2)C(=O)O1 [Example 26, (S)-N-[[3-[3-Fluoro-4-(4-thiomorpholinyl)phenyl]-2-oxo-5-oxazolidinyl]methyl]thio-acetamide] | 1 mg/L (≈ 2.71 µM) | 0.5 mg/L (≈ 1.35 µM) | 1 mg/L (≈ 2.71 µM) | 1 mg/L (≈ 2.71 µM) | 2 mg/L (≈ 5.41 µM) | 16 mg/L (≈ 43.3 µM) | 0.25 mg/L (≈ 0.677 µM) | 0.5 mg/L (≈ 1.35 µM) | 155 to 156 °C
CC(=S)NC[C@H]1CN(c2ccc(N3CC[S+]([O-])CC3)c(F)c2)C(=O)O1 [Example 27, (S)-N-[[3-[3-Fluoro-4-(4-thiomorpholinyl)phenyl]-2-oxo-5-oxazolidinyl]methyl]thio-acetamide, thiomorpholine S-oxide] | 1 mg/L (≈ 2.59 µM) | 0.5 mg/L (≈ 1.3 µM) | 0.5 mg/L (≈ 1.3 µM) | 0.5 mg/L (≈ 1.3 µM) | 2 mg/L (≈ 5.19 µM) | 4 mg/L (≈ 10.4 µM) | < 0.125 mg/L | 0.25 mg/L (≈ 0.649 µM) | 176 to 177 °C
CC(=S)NC[C@H]1CN(c2cc(F)c(N3CCN(C(=O)CO)CC3)c(F)c2)C(=O)O1 [Example 29, (S)-N-[[3-[3,5-Difluoro-4-[4-(hydroxyacetyl)-1-piperazinyl]phenyl]-2-oxo-5-oxazolidinyl]methyl]thioacetamide] | 0.25 mg/L (≈ 0.583 µM) | 0.25 mg/L (≈ 0.583 µM) | 0.25 mg/L (≈ 0.583 µM) | 0.25 mg/L (≈ 0.583 µM) | 0.5 mg/L (≈ 1.17 µM) | 2 mg/L (≈ 4.67 µM) | < 0.125 mg/L | < 0.125 mg/L | 110 to 111 °C (dec.)
NC(=S)NC[C@H]1CN(c2ccc(-n3cncn3)c(F)c2)C(=O)O1 [Example 30] | 1 mg/L (≈ 2.97 µM) | 1 mg/L (≈ 2.97 µM) | 0.5 mg/L (≈ 1.49 µM) | 4 mg/L (≈ 11.9 µM) | 2 mg/L (≈ 5.95 µM) | 8 mg/L (≈ 23.8 µM) | < 0.125 mg/L | 0.25 mg/L (≈ 0.743 µM) | 214 to 215 °C
NC(=S)NC[C@H]1CN(c2ccc(N3CCN(C(=O)CO)CC3)c(F)c2)C(=O)O1 [Example 31, (S)-N-[[3-[3-Fluoro-4-[4-(hydroxyacetyl)-1-piperazinyl]phenyl]-2oxo-5-oxazolidinyl]-methyl]thiourea] | 1 mg/L (≈ 2.43 µM) | 1 mg/L (≈ 2.43 µM) | 1 mg/L (≈ 2.43 µM) | 2 mg/L (≈ 4.86 µM) | 1 mg/L (≈ 2.43 µM) | 4 mg/L (≈ 9.72 µM) | < 0.125 mg/L | 0.25 mg/L (≈ 0.608 µM) | 209 to 210 °C
NC(=S)NC[C@H]1CN(c2ccc3c(c2)CCN3C(=O)CO)C(=O)O1 [Example 32, (S)-N-[[3-[1-(Hydroxyacetyl)-5-indolinyl]-2-oxo-5-5 oxazolidinyl]methyl]thiourea] | 4 mg/L (≈ 11.4 µM) | 2 mg/L (≈ 5.71 µM) | 2 mg/L (≈ 5.71 µM) | 16 mg/L (≈ 45.7 µM) | 2 mg/L (≈ 5.71 µM) | 8 mg/L (≈ 22.8 µM) | 0.25 mg/L (≈ 0.713 µM) | 0.25 mg/L (≈ 0.713 µM) | 214 to 215 °C (dec.)
NC(=S)NC[C@H]1CN(c2ccc(N3CC[S+]([O-])CC3)c(F)c2)C(=O)O1 [Example 33, (S)-N-[[3-[3-Fluoro-4-(4-thiomorpholinyl)phenyl]-2-oxo-5-oxazolidinyl]methyl]thiourea, thiomorpholine S-oxide] | 4 mg/L (≈ 10.3 µM) | 2 mg/L (≈ 5.17 µM) | 1 mg/L (≈ 2.59 µM) | 4 mg/L (≈ 10.3 µM) | 2 mg/L (≈ 5.17 µM) | 4 mg/L (≈ 10.3 µM) | 0.25 mg/L (≈ 0.647 µM) | 0.25 mg/L (≈ 0.647 µM) | 212 to 213 °C
